IC50, EC50 and AC50 data for six compounds are collected here from ChEMBL document CHEMBL1201862, “PubChem BioAssay data set” (2004).

Each structure is given as a SMILES string. Calls of active or inactive are those of the source. Where only a bound is given, the exact number is not on record here.

Usually IC50 stands for the point on the concentration scale where inhibition reaches its midpoint. By EC50 is commonly meant the concentration at which the effect is half-maximal. What is called AC50 is the concentration at which the activity in the assay is half-maximal.

For one test, the target named is Bcl-2-like protein 10 (Homo sapiens, UniProt Q9HD36). The test is described as follows: displacers of TR3 peptide from Bcl-B, primary screen, selectivity assay for Bfl-1 inhibitor project, biochemical, fluorescence polarization, FITC-TR3 peptide (AID 748).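 Further: fluorescence polarization from a fluorescein-labelled TR3 peptide binding purified Bcl-B.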 Background: Polarisation of emitted light reports the rotation of a fluorescent probe.
The subject of a further test is J774.A1. Description: Confirmation of image-based Screening Assay for Inhibitors of Phagocytosis. [Related pubchem assays (depositor defined):AID1029, AID1643]. It counts as functional, cell-based. To be noted: Mus musculus.
For test [1], the system named is HEK293. Description: NOD2 signaling inhibitors in MDP-stimulated cells, cell-based, uHTS, luminescence (AID 2001). It counts as functional. To be noted: Homo sapiens.
Test [2] deals with T1, Nucleotide-binding oligomerization domain-containing protein 1 (Homo sapiens, UniProt Q9Y239).
T1 sequence (Q9Y239 whole entry): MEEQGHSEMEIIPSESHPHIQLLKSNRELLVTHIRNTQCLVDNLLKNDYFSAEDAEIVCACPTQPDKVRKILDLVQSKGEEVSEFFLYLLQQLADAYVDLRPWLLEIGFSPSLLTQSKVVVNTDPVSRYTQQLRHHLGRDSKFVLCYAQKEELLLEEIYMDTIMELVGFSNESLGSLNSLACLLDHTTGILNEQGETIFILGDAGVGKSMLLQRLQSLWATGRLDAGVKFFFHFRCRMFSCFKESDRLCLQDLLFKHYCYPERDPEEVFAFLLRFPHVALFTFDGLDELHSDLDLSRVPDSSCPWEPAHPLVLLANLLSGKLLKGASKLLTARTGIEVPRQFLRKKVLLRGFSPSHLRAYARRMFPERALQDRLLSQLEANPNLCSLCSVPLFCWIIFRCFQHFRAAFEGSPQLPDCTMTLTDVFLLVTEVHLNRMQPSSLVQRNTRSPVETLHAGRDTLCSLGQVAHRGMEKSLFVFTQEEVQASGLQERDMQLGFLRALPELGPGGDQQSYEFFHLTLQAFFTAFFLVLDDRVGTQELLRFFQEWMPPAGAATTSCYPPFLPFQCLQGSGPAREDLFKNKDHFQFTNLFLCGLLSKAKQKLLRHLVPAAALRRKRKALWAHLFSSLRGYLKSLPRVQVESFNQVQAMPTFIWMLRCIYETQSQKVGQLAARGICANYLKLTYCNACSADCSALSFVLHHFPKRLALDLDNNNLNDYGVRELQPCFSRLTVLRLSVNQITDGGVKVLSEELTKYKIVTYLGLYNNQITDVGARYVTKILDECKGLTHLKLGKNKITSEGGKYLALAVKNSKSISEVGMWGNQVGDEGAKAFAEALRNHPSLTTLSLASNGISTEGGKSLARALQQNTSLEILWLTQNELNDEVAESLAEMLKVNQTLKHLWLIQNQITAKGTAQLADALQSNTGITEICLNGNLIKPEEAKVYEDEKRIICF
Description: SAR analysis of compounds that inhibit NOD1 - Set 2. [Related pubchem assays (depositor defined):AID1566, AID1575, AID1578, AID1849, AID1852, AID2333, AID2335, AID2798]. It counts as functional.

The nature of test [3]: inhibitors of intracellular T. cruzi replication, confirmation, NIH3T3 host cells, beta-gal luminescence (AID 2044).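 Further: intracellular parasites grown in NIH/3T3 mouse fibroblasts as host cells; luminescent beta-galactosidase reporter signal from transgenic T. cruzi replicating inside host cells; inhibitors lower the luminescence signal.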 It counts as functional, cell-based.
The subject of test [4] is HEK293. The test is described as follows: cells. It counts as functional, cell-based. To be noted: Homo sapiens.
Test [5] deals with T1, Nucleotide-binding oligomerization domain-containing protein 1. The test is described as follows: NOD1 signaling inhibitors, SAR follow-up, revised (AID 2333). It counts as functional.
A short description of test [6]: cytotoxicity toward NIH3T3 fibroblasts, dose response, counter-screen, cell-based, ATP luminescence, mouse fibroblasts (AID 2010).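 Further: cells exposed to compound for about 90 hours before reading.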 It counts as functional. In general terms: Counterscreens check selectivity or assay interference.
In test [7] the test system is HEK293. Description: cells. The settings on record: Homo sapiens. It counts as functional, cell-based. This is another data set of the same source.
The test system of test [8] is HEK293. Description: cells. It counts as functional, cell-based. The settings on record: Homo sapiens. This is another data set of the same source.
Test [9] deals with HEK293. The test is described as follows: SAR analysis of compounds that are cytotoxic to HEK293 - Set 2. [Related pubchem assays (depositor defined):AID1575, AID1578, AID1849, AID2001, AID2333, AID2334, AID2335, AID2337, AID2800]. It counts as functional, cell-based. The settings on record: Homo sapiens.
For test [10], the target named is T2, Interleukin-8 (Homo sapiens, UniProt P10145).
T2 sequence (P10145 whole entry): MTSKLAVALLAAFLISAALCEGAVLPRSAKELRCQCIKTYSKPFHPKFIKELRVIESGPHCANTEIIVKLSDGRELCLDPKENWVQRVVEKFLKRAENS
The test is described as follows: SAR analysis of Tumor necrosis factor alpha (TNF-alpha) induced IL-8 secretion in MCF-7/NOD1 cells - Set 2. [Related pubchem assays (depositor defined):AID1575, AID2250, AID2260]. It counts as functional, cell-based.

Test [11] deals with T2, Interleukin-8. Description: SAR analysis of GM-Tri-DAP induced IL-8 secretion in MCF-7/NOD1 cells - Set 2. [Related pubchem assays (depositor defined):AID1575, AID1578, AID2333]. It counts as functional, cell-based.
For test [12], the target named is T3, Nucleotide-binding oligomerization domain-containing protein 2 (Homo sapiens, UniProt Q9HC29). Description: NOD2 inhibitors, SAR follow-up, set 2 (AID 2475). It counts as functional.
Test [13] deals with HEK293. Description: NOD1 signaling inhibitors, primary screen, cell-based, luminescence, uHTS (AID 1578). To be noted: Homo sapiens. It counts as functional.
Test [14] deals with HEK293. The test is described as follows: cells. To be noted: Homo sapiens.
Test [15] deals with T3, Nucleotide-binding oligomerization domain-containing protein 2. Description: NOD2 signaling inhibitors, cell-based, luminescence, uHTS, HEK293 (AID 1566). It counts as functional.
Another test has as its target Tumor necrosis factor (Homo sapiens, UniProt P01375). The test is described as follows: TNFa-triggered NF-kB activation inhibitors, SAR follow-up, cell-based, revised (AID 2337). It counts as functional.
Test [16] addresses T3, Nucleotide-binding oligomerization domain-containing protein 2. The test is described as follows: PubChem AID 2334. It counts as functional.
Test [17] concerns Streptococcus sp. 'group A'. The test is described as follows: growth inhibition of control SK(-) GAS strain, dose response, counter-screen for streptokinase expression inhibitor project, luminescence, kanamycin, BacTiterGlo, confirmation (AID 1900). It counts as functional, organism-based.
The subject of the next test is INS1. Description: beta cell apoptosis inhibitors, cytokine rescue, dose response, luminescence, retest (AID 449756).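 Further: cell death triggered by IL-1 beta plus TNF-alpha plus IFN-gamma mixture; protective hits raise ATP signal compared with cytokine alone wells.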 The settings on record: Rattus norvegicus. It counts as functional, cell-based.
The subject of a further test is Streptococcus. Description: Group A Streptococcus viability loss, dose response, counter-screen for streptokinase expression inhibitor project, luminescence, BacTiterGlo (AID 1915).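 Further: potency for reduction of bacterial viability or growth.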 It counts as functional, organism-based.
Test [18] concerns the target NACHT, LRR and PYD domains-containing protein 3 (Homo sapiens, UniProt Q96P20). The test is described as follows: NALP3 inhibitors in yeast, dose response, luminescent (AID 488799). It counts as functional.
Another test concerns the target Hexokinase (Trypanosoma brucei, UniProt Q38C41). Description: Confirmation assay for inhibitors of Trypanosoma brucei hexokinase 1-Analogue-first series. [Related pubchem assays (depositor defined):AID1430, AID1632, AID2516, AID2560, AID2579, AID2600, AID449725, AID492951]. It counts as functional.
The next test concerns MDA-MB-435. The test is described as follows: cells. It counts as functional, cell-based. The settings on record: Homo sapiens.
A short description of the next test: cells. To be noted: PPC-1. It counts as functional, cell-based.

T3 sequence (Q9HC29 whole entry, the tested form may be a part): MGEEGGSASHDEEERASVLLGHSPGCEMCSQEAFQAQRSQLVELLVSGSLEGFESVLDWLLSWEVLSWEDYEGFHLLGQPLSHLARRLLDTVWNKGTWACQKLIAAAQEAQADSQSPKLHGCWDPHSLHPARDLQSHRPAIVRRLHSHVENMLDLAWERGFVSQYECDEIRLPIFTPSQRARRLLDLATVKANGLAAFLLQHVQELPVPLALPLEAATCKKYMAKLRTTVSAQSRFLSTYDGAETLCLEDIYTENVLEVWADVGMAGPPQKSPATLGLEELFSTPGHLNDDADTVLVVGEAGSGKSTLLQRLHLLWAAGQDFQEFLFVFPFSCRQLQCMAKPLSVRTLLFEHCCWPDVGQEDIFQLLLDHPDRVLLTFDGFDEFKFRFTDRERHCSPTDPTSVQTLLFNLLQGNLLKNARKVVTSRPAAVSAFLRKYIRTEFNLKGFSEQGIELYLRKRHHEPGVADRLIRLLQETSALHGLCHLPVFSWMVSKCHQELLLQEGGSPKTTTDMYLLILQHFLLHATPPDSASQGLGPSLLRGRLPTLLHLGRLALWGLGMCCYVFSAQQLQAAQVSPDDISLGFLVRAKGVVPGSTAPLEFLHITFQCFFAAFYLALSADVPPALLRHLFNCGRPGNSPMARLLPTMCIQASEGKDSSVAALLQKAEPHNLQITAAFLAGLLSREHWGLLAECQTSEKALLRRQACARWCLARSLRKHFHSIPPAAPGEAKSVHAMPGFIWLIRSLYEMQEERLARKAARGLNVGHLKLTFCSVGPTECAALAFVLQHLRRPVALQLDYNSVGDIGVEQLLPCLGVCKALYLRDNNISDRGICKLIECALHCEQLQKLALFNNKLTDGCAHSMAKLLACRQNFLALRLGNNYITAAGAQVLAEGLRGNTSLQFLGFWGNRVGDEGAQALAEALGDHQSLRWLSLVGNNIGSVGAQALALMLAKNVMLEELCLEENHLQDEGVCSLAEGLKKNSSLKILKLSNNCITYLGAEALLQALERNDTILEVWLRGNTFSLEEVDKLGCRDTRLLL
Tumor necrosis factor, sequence (P01375 whole entry, the tested form may be a part): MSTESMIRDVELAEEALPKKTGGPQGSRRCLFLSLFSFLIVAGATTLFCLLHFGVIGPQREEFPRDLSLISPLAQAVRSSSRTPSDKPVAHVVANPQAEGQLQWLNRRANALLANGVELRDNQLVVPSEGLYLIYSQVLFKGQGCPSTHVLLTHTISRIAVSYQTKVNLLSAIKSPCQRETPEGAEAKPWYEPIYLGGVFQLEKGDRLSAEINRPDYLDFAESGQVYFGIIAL
NACHT, LRR and PYD domains-containing protein 3, sequence (Q96P20 whole entry, the tested form may be a part): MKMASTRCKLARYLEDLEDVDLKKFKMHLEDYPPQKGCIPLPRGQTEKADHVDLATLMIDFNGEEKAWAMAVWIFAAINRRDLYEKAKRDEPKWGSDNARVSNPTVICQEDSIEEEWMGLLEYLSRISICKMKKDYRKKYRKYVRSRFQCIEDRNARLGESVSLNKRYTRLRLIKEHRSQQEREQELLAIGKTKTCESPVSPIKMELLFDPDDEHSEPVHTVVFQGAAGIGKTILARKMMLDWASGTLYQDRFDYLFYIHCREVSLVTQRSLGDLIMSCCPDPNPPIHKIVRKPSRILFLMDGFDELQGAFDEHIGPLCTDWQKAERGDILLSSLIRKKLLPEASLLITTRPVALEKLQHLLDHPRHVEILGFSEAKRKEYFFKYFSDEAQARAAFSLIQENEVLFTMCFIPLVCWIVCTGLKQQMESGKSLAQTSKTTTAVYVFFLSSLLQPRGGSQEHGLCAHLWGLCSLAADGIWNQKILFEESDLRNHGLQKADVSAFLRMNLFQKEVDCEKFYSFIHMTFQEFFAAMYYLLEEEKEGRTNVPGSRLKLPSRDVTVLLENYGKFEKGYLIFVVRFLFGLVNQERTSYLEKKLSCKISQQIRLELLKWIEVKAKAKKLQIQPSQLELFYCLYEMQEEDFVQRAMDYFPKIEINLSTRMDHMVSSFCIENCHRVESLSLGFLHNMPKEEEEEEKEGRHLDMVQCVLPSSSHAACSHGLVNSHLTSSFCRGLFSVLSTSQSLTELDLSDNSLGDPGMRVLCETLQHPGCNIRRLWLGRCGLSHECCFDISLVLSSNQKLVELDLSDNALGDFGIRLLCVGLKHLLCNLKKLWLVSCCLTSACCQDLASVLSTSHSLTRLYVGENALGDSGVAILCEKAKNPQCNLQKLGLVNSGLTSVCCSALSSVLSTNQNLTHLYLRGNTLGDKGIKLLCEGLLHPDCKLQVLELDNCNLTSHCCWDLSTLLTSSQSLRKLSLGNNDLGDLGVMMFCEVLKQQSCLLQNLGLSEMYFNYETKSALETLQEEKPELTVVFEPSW
Hexokinase, sequence (Q38C41 whole entry): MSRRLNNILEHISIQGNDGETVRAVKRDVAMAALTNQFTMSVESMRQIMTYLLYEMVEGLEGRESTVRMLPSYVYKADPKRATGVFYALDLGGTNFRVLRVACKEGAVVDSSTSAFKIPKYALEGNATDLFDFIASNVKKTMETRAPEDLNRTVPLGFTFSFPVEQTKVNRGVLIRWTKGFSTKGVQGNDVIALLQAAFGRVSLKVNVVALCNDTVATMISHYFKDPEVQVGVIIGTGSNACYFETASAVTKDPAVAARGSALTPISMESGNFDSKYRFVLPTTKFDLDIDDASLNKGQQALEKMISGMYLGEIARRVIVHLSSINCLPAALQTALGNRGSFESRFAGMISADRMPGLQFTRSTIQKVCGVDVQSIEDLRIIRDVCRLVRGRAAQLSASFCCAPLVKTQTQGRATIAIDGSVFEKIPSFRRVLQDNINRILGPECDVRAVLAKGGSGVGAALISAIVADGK
Bcl-2-like protein 10, sequence (Q9HD36 whole entry): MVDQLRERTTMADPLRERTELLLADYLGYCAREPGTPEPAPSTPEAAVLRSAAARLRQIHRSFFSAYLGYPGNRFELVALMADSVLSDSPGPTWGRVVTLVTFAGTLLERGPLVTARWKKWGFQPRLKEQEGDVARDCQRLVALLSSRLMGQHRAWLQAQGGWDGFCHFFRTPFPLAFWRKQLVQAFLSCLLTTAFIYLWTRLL

Turning to `C=CCSc1nnc2nc3c(nn12)c1cc(C)ccc1n3CC=C`, the IC50 on Bcl-2-like protein 10 is > 100 µM (inactive).

On to `Cn1cc(C=Nn2cnc3scc(-c4ccc(Cl)cc4)c3c2=O)c2ccccc21`, for which the IC50 in the test with J774.A1 is < 0.05 µM (inactive).

For the compound `O=C(Nc1nc2ccccc2n1Cc1ccc(Cl)cc1)c1ccco1`, the 50% inhibitory concentration (IC50) is 1.96 µM (active) with HEK293 [1]; 3.47 µM (active) in test [2]; > 20 µM (inactive) in the test on HEK293 [4]; > 20 µM (inactive) in [5]; > 20 µM (inactive) in the test on HEK293 [7]; > 20 µM (inactive) with HEK293 [8]. Besides, the IC50 in the test on HEK293 [9] is > 20 µM (inactive); at Interleukin-8 [10], > 25 µM (inactive); on Interleukin-8 [11], > 25 µM (inactive); in test [12], 3.63 µM (active); with HEK293 [14], > 20 µM (inactive); at Tumor necrosis factor it was > 20 µM (inactive). Moreover, the IC50 in test [16] was > 20 µM (inactive). For the same compound, the EC50 in test [3] is 1.72 µM (active); in [6] it was > 60 µM (not active); in the test with HEK293 [13], > 20 µM (inactive); in [15] it was > 20 µM (inactive).

Take `CC(=O)Oc1c(I)cc(I)cc1C(=O)Nc1ccc(Cl)cc1` [CLIOXANIDE]: the EC50 in test [17] was 0.377 µM (active); in the test on Streptococcus it was 0.76 µM (active). In addition, the AC50 with INS1 is 12.5 µM (active). Further, the IC50 in test [18] is 1.61 µM (active).

As to `O=C1CCN(C(=O)Nc2cc(Cl)ccc2C(=O)O)CC1`, the IC50 at Hexokinase is > 25 µM (inactive).

With `CSc1nc(-c2ccccc2)nc(-c2ccccc2OC(C)=O)n1`, the IC50 with MDA-MB-435 and in the test “cells” was > 10 µM (inactive) throughout.
